Data on 18 compounds can be found in US7074789B2, “Kinase inhibitors” (Amgen Inc., priority 1999, dated 2006).

Structures are written as SMILES.

Assay type in all cases: biochemical
One assay deals with T1, Zap-70 (Homo sapiens, UniProt P43403).
T1 construct: Kinases are expressed as either kinase domains or full length constructs; made in house
T1 sequence (P43403 1-619): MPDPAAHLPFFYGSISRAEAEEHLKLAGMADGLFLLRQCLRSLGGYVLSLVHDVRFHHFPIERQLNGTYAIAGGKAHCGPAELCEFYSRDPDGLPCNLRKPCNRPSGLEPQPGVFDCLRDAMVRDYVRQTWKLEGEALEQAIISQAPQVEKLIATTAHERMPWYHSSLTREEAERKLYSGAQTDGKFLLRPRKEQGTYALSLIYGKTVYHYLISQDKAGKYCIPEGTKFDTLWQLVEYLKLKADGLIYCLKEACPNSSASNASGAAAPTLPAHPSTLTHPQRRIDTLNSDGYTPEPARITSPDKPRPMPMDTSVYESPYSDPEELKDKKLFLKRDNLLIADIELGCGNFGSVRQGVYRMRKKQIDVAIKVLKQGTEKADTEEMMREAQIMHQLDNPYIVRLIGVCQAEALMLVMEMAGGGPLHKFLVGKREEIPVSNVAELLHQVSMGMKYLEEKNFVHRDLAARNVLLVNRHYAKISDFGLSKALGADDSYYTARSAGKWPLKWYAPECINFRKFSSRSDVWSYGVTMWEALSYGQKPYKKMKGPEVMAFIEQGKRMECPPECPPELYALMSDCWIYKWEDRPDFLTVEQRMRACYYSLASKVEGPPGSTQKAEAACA
Put plainly: Kinase inhibition assay (33P transfer), Zap-70. The settings on record: Table 3; read-out: Zap-1. The essentials: (§1)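 GST/His-tagged kinase (domain or full length; E. coli or baculovirus) + [33P]ATP on plates coated with poly(Glu,Tyr) 4:1 or poly(Arg,Ser) 3:1; incubate, wash 0.5% H3PO4, add scintillant, count.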

Another assay deals with T2, AKT (Homo sapiens, UniProt Q9Y243).
T2 construct: Kinases are expressed as either kinase domains or full length constructs; made in house
T2 sequence (Q9Y243 whole entry, the tested form may be a part): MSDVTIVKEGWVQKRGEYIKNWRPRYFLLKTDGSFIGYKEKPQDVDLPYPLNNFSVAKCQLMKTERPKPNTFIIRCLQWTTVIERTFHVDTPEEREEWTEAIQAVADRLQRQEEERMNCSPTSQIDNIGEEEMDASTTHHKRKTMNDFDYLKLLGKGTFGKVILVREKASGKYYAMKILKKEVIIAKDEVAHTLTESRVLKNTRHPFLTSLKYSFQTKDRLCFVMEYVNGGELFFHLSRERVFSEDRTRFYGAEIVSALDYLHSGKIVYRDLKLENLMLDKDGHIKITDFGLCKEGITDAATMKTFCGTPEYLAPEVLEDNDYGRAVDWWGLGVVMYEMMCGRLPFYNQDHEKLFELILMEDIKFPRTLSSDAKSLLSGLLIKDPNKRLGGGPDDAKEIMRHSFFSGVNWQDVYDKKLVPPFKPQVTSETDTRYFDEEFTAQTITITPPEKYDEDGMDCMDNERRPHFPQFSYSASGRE
Put plainly: Kinase inhibition assay (33P transfer), AKT. The settings on record: Table 2, kinase inhibition class; read-out: AKT3-1. The essentials: as §1

A further assay has as its target T3, IGFR-1 (Homo sapiens, UniProt P08069).
T3 construct: Kinases are expressed as either kinase domains or full length constructs; made in house
Kind of assay: Kinase inhibition assay (33P transfer), IGFR-1. Conditions: Table 2, kinase inhibition class.

The target in another assay is T4, EGFR (Homo sapiens, UniProt P00533).
T4 construct: Kinases are expressed as either kinase domains or full length constructs; made in house
T4 sequence (P00533 25-1210, species assumed): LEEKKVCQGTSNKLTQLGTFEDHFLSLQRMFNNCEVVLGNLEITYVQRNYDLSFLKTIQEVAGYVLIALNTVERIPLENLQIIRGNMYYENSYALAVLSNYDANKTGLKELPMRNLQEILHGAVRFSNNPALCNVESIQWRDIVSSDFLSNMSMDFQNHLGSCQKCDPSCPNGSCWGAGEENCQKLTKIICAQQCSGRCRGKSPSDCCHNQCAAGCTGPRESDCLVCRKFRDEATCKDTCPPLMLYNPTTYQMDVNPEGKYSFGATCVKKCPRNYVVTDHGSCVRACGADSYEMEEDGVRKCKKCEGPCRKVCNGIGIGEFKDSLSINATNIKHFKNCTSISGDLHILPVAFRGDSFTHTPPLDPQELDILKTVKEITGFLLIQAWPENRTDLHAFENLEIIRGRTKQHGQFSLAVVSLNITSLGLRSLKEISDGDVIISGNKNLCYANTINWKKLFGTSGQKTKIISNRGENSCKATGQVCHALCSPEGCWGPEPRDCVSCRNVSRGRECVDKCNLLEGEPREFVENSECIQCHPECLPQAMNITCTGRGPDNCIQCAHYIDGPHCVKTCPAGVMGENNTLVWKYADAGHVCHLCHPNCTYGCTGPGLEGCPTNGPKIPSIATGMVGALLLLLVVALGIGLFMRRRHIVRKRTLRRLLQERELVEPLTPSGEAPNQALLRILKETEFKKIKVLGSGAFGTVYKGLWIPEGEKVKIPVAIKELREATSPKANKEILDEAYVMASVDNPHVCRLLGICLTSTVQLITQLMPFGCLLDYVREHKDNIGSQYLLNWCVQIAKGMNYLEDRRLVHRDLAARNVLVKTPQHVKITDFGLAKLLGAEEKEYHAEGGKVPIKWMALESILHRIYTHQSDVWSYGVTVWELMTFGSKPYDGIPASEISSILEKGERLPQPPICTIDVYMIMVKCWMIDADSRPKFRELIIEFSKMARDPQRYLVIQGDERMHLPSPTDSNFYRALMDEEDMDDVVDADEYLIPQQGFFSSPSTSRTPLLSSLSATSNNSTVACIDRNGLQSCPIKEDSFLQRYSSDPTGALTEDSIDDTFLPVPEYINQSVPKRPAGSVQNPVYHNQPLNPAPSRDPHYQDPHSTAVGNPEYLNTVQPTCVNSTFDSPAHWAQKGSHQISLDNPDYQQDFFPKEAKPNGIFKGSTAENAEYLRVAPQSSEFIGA
Kind of assay: Kinase inhibition assay (33P transfer), EGFR. The settings on record: Table 2, kinase inhibition class; read-out: EGFR-1. The essentials: (§2)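 Recombinant kinase domains or full-length GST- or His-tagged constructs, from E. coli or baculovirus/High Five cells, sometimes with regulatory polypeptides. Transfer of 33P from ATP to plate-bound poly(Glu,Tyr) 4:1 or poly(Arg,Ser) 3:1 counted by liquid scintillation after phosphoric acid wash; IC50 is the concentration halving incorporation.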

A further assay addresses T5, Lck (Homo sapiens, UniProt P06239).
T5 construct: Kinases are expressed as either kinase domains or full length constructs; made in house
Kind of assay: Kinase inhibition assay (33P transfer), Lck. Conditions: Table 3; read-out: Lck-1. In short, it runs like this:
as §1

Another assay addresses T6, c-Met (Homo sapiens, UniProt P08581).
T6 construct: Kinases are expressed as either kinase domains or full length constructs; made in house
Put plainly: Kinase inhibition assay (33P transfer), c-Met. The settings on record: Table 2, kinase inhibition class; read-out: Met-1. The essentials:
as §2

A further assay has as its target T7, Itk (Homo sapiens, UniProt Q08881).
T7 construct: Kinases are expressed as either kinase domains or full length constructs; made in house
T7 sequence (Q08881 1-620): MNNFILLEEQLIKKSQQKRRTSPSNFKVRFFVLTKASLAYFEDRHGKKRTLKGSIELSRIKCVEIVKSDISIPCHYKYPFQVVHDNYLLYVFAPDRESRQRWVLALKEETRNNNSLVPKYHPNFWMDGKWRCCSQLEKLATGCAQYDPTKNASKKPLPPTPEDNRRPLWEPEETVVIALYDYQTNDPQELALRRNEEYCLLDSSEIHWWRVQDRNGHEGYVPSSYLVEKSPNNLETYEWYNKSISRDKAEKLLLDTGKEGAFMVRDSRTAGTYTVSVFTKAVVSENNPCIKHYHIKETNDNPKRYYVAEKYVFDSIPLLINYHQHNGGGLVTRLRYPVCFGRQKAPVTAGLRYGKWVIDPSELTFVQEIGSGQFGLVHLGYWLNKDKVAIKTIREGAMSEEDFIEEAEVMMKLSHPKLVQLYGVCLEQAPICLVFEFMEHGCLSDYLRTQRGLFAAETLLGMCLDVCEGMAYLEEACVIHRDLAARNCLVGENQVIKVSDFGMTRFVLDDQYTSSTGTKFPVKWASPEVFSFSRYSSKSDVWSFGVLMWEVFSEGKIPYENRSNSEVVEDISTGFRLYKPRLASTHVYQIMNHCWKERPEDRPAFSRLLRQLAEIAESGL
Kind of assay: Kinase inhibition assay (33P transfer), Itk. The settings on record: Table 3; read-out: Itk-1. The essentials: as §2

For the next assay, the target named is T8, Kdr (Homo sapiens, UniProt P35968).
T8 construct: Kinases are expressed as either kinase domains or full length constructs; made in house
T8 sequence (P35968 20-1356, species assumed): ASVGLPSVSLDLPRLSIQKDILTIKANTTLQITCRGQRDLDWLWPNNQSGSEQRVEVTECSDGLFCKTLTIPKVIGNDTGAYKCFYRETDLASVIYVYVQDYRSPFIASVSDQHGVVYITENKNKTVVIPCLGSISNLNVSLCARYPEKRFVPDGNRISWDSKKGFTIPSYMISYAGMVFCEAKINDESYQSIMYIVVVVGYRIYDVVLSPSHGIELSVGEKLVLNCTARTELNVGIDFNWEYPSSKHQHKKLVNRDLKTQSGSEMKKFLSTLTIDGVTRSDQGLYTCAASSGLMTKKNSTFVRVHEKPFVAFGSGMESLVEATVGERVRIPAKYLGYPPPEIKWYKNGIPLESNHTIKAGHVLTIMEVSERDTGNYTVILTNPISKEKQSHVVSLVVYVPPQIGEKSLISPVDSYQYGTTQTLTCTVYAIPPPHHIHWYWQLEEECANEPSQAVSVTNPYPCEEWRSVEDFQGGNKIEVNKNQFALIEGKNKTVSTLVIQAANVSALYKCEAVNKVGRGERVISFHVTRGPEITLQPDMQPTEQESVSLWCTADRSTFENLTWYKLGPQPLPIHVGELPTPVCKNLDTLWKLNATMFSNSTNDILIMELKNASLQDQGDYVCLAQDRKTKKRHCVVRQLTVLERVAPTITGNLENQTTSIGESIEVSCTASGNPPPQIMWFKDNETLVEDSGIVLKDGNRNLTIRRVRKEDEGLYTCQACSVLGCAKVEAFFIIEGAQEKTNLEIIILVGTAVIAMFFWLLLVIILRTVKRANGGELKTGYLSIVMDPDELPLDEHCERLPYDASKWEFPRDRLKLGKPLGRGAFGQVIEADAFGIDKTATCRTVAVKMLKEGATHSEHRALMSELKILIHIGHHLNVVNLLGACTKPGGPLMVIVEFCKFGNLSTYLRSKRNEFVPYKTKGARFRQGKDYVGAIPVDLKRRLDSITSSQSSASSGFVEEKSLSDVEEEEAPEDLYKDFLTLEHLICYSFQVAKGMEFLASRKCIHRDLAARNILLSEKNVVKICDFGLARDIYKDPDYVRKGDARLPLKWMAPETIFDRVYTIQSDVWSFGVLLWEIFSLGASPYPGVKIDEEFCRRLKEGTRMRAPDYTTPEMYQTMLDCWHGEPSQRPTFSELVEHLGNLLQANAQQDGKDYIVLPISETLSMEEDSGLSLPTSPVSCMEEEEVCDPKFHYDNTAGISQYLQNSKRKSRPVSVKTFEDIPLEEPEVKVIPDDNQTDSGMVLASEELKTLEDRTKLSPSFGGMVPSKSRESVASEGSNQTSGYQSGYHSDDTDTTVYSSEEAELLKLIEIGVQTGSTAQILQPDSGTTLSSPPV
Put plainly: Kinase inhibition assay (33P transfer), Kdr. The settings on record: Table 3; read-out: KDR-1. The essentials: as §1

T5 sequence (P06239 whole entry, species assumed, the tested form may be a part): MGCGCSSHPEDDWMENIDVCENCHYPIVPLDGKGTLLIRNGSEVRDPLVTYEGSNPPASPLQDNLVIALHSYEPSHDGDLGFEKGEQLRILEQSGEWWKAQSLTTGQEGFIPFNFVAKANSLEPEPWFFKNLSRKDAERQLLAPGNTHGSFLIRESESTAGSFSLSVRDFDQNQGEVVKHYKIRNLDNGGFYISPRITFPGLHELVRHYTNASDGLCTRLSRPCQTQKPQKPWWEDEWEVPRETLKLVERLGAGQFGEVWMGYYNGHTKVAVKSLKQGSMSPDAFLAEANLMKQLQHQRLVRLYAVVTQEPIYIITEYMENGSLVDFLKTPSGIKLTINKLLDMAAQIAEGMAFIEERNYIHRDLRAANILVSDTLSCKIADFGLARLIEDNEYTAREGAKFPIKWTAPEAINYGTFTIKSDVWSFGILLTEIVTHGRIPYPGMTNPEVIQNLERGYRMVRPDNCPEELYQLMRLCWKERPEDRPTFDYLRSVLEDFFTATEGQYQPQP
T3 sequence (P08069 31-1367): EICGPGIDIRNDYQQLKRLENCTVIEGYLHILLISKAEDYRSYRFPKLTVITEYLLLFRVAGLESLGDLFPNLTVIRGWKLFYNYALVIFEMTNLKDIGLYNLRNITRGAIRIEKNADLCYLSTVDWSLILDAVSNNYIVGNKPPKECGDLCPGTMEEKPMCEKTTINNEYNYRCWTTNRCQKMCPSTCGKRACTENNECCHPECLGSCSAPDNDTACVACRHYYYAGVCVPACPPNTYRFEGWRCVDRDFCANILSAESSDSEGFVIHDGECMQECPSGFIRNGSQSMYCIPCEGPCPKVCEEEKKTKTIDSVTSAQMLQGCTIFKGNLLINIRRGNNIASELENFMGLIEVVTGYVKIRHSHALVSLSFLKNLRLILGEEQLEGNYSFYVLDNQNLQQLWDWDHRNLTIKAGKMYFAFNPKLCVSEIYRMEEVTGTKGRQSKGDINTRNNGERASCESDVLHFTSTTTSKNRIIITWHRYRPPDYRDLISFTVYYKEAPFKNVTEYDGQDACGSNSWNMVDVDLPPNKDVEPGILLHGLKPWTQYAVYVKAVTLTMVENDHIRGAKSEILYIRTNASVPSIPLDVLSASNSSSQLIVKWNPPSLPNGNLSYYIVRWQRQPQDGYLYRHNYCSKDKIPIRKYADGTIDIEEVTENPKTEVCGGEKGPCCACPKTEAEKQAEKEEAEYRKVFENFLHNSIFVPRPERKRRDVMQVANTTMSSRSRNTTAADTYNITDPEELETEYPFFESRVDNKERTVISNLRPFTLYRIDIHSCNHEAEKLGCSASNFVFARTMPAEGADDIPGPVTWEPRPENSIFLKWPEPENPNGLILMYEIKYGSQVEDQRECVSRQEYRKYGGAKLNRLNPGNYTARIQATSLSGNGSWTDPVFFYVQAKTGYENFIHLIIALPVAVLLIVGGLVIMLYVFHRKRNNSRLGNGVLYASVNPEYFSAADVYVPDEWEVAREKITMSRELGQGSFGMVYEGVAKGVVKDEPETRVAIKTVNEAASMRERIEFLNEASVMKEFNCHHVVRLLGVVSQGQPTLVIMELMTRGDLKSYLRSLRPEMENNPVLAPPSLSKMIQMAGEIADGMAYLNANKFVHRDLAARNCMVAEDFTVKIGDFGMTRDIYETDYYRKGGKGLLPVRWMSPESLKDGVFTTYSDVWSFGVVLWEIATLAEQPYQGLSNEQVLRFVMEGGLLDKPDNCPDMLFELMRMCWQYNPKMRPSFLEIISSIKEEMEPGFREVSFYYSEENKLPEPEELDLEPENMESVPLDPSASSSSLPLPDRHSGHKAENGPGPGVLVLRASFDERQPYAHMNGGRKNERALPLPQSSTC

Turning to `c1ccc(COc2cccc(Nc3ncnc(-c4cccs4)n3)c2)cc1` [Compound 361], the IC50 on Zap-70, at AKT, against IGFR-1, at EGFR, at Lck and at c-Met was over 12.5 µM in each case. Also, the IC50 at Itk and at Kdr was over 12.5 µM throughout.
Consider `NC(=O)c1cccc(Nc2ncnc(-c3cccs3)n2)c1` [Compound 358], for which the IC50 at Zap-70, on AKT, at IGFR-1, at EGFR, on Lck and at c-Met was over 15.1 µM throughout. The IC50 on Itk and at Kdr was over 15.1 µM each time.
As for `COc1cc(Nc2ncnc(N3CCCC3)n2)cc(OC)c1OC` [Compound 181], the IC50 on Zap-70, on AKT, against IGFR-1, on EGFR, on Lck and at c-Met was over 13.6 µM each time. The IC50 at Itk and on Kdr was over 13.6 µM each time.
Regarding `COc1cc(Nc2ncnc(N3CCc4ccc([N+](=O)[O-])cc43)n2)cc(OC)c1OC` [Compound 191], the IC50 at Zap-70, at AKT, against IGFR-1, on EGFR, at Lck and on c-Met was over 10.6 µM each time. The IC50 on Itk is over 10.6 µM; at Kdr it was 5.65 to 8.25 µM.
On to `OCc1ccc(Nc2ncnc(-c3ccccc3)n2)cc1` [Compound 165], for which the IC50 on Zap-70, at AKT, at IGFR-1, on EGFR, on Lck and on c-Met was over 16.2 µM in each case. Also, the IC50 at Itk and on Kdr was over 16.2 µM each time.
Regarding `COc1cc(Nc2ncnc(-n3ccnc3)n2)cc(OC)c1OC` [Compound 183], the IC50 at Zap-70, on AKT, against IGFR-1, on EGFR, at Lck and at c-Met was over 13.7 µM each time. The IC50 on Itk is over 13.7 µM; on Kdr, 7.31 to 10.7 µM.
Consider `COc1cc(Nc2ncnc(N3CCN(c4ccccn4)CC3)n2)cc(OC)c1OC` [Compound 213], for which the IC50 on Zap-70, at AKT, at IGFR-1, on EGFR, on Lck and on c-Met was over 10.6 µM throughout. For the same compound, the figures for the IC50 at Itk and on Kdr were over 10.6 µM and 0.945 to 5.67 µM, respectively.
As for `CCOC(=O)Cc1ccc(Nc2ncnc(-c3ccccc3)n2)cc1` [Compound 164], the IC50 at Zap-70, on AKT, at IGFR-1, on EGFR, at Lck and at c-Met was over 13.5 µM throughout. In addition, the IC50 on Itk and on Kdr was over 13.5 µM in each case.
In the case of `COc1cccc(NC(=O)Nc2ncnc(Nc3cc(OC)c(OC)c(OC)c3)n2)c1` [Compound 21], the IC50 at Zap-70 is 8.21 to 10.6 µM; on AKT, over 10.6 µM; against IGFR-1, 0.938 to 5.63 µM; on EGFR it was over 10.6 µM; on Lck, 0.938 to 5.63 µM; on c-Met, 8.21 to 10.6 µM. The IC50 on Itk is over 10.6 µM; at Kdr, 0.938 to 5.63 µM.
On to `COc1cc(Nc2ncnc(Nc3ncncn3)n2)cc(OC)c1OC` [Compound 254], for which the IC50 on Zap-70, at AKT, against IGFR-1, at EGFR, on Lck and at c-Met was over 12.6 µM each time. For the same compound, the IC50 on Itk and at Kdr was over 12.6 µM throughout.
Consider `COc1cc(Nc2ncnc(-n3c(NCCO)nc4ccccc43)n2)cc(OC)c1OC` [Compound 391], for which the IC50 at Zap-70 was over 10.3 µM; at AKT, over 10.3 µM; at IGFR-1 it was over 10.3 µM; on EGFR, over 10.3 µM; on Lck, 8 to 10.3 µM; at c-Met, over 10.3 µM. Further, the IC50 at Itk is over 10.3 µM; at Kdr, 0.914 to 5.49 µM.
Take `COc1cc(Nc2ncnc(-c3ccnc(N4CCCCC4)c3)n2)cc(OC)c1OC` [Compound 345]: the IC50 was over 10.7 µM at Zap-70; over 10.7 µM at AKT; 0.947 to 5.68 µM against IGFR-1; over 10.7 µM on EGFR; 0.947 to 5.68 µM on Lck; 0.947 to 5.68 µM at c-Met. Besides, the IC50 at Itk is over 10.7 µM; at Kdr it was under 0.947 µM.
`COc1cc(Nc2ncnc(N3CCN(c4ncccn4)CC3)n2)cc(OC)c1OC` [Compound 214]: the IC50 on Zap-70 is over 10.6 µM; at AKT, over 10.6 µM; at IGFR-1, over 10.6 µM; on EGFR it was over 10.6 µM; at Lck it was over 10.6 µM; at c-Met, 5.65 to 8.25 µM. Moreover, the IC50 is over 10.6 µM on Itk and 0.942 to 5.65 µM at Kdr.
As for `CC(C)(C)OC(=O)NCCCNc1ncnc(-c2ccccc2)n1` [Compound 17], the IC50 on Zap-70, on AKT, against IGFR-1, at EGFR, at Lck and at c-Met was over 13.7 µM in each case. Further, the IC50 on Itk and on Kdr was over 13.7 µM each time.
As to `COc1cc(Nc2ncnc(-c3ccnc(Cl)c3)n2)cc(OC)c1OC` [Compound 331], the IC50 on Zap-70, at AKT, against IGFR-1, on EGFR, at Lck and on c-Met was over 12 µM each time. The IC50 at Itk and on Kdr was over 12 µM in each case.
Turning to `c1csc(-c2ncnc(Nc3ccc4c(c3)OCO4)n2)c1` [Compound 1072], the IC50 on Zap-70 is over 15.1 µM; at AKT, over 15.1 µM; on IGFR-1, over 15.1 µM; at EGFR it was over 15.1 µM; on Lck it was over 15.1 µM; at c-Met, 11.7 to 15.1 µM. The IC50 at Itk was over 15.1 µM; on Kdr, 8.04 to 11.7 µM.
For the compound `Clc1cccc(Nc2ncnc(-c3cccs3)n2)c1` [Compound 360], the IC50 on Zap-70, on AKT, at IGFR-1, on EGFR, on Lck and on c-Met was over 15.6 µM each time. The IC50 at Itk and on Kdr was over 15.6 µM throughout.
With `N#Cc1ccc(Nc2ncnc(-c3cccs3)n2)cc1` [Compound 356], the IC50 on Zap-70, on AKT, on IGFR-1, at EGFR, at Lck and at c-Met was over 16.1 µM in each case. For the same compound, the IC50 at Itk and on Kdr was over 16.1 µM throughout.
